{"source": "patent US9796777B2", "about": "“Methods of treating malignant tumors” (Canimguide Therapeutics AB, priority 2007, dated 2017)", "key": {"[1]": {"system": "PBMC", "assay": "LPS-induced IL-6 production by PBMC, effect of peptides", "format": "cell-based, human", "method": "100 μl of culture medium consisting of RPMI1640 supplemented with 200 IU/ml penicillin, 200 μg/ml streptomycin, 4 mM L-glutamine (Sigma Chemical, Mo., US) and 20% fresh heat-inactivated autologous serum were added to un-coated or -pre-coated microtiter plates followed by 100 μl of PBMC suspension (5×10^4 lymphocytes) in RPMI/2% HSA with peptides at the indicated concentrations. Lipoplysaccharide (LPS, Sigma Chemical Co, MO, US) was added at a final concentration of 0.05 ng/ml. […] All assay conditions were set up in triplicate wells. Supernatants (SNs) were harvested after 24 hrs and residual cells were removed by centrifugation in a refrigerated centrifuge (Beckman) at 2600×g for 5 minutes. SNs were frozen and stored at −70° C. IL-6 in cell culture SNs was measured by ELISA using the DuoSet® ELISA development kit for human IL-6 (R&D Systems Europe, Ltd., Abingdon, UK) following the manufacturer's recommended procedures. The lower limit of detection was 3.1 pg/ml. Samples were analysed as mean of triplicate wells."}, "[2]": {"system": "PBMC", "assay": "IL-2 induced proliferation of PBMC with albumin peptides in coated and uncoated tissue culture plates", "format": "cell-based, human", "conditions": "PBMC from healthy individuals; peptide 5 μg/ml final; 7 days", "method": "A mixture of 1 mg/ml IgG in a solution of 9 mg/ml HSA in RPMI (HSA/IgG) was also prepared. 200 μl of HSA or HSA/IgG were then added to each well of the plate. The plates were incubated at 4° C. for 30 minutes after which the wells were washed twice with 200 μl of RPMI1640. The coated plates were used immediately. […] PBMC, isolated from healthy individuals, were diluted in RPMI/2% HSA and peptides were added directly to the cell suspension at a concentration of 10 μg/ml."}, "[3]": {"system": "natural killer (NK) cells", "assay": "Cytotoxic activity of natural killer (NK) cells against K562 (NKTEST, flow cytometry)", "format": "cell-based, human", "conditions": "four healthy donors; peptides 10 ug/ml; effector:target ratio 40:1", "method": "Mononuclear cells were separated by standard Ficoll-paque Plus (Pharmacia AB, Sweden) density gradient centrifugation from heparinized blood obtained from healthy donors. NK cell cytotoxic activity of the mononuclear cells was then tested using a commercial kit (NKTEST, Orpegen Pharma GmbH, Heidelberg, Germany) following the manufacturers protocol. Briefly, the kit contains cryopreserved, NK-sensitive target cells (K562) labelled with a lipophilic green fluorescent membrane dye, which enables discrimination of effector and target cells. After incubation with effector cells, killed target cells are identified by a DNA-stain, which penetrates and specifically stain the nuclei of dead target cells. This way the percentage of killed targets can be determined by flow cytometry. The mononuclear cells were pre-incubated for 30 min at 37° C. with the indicated peptides (peptides have been described previously) at 10 ug/ml. Target cells were then added, giving an effector:target ratio of 40:1, and the cell mixture incubated at 37° C. for 3-4 hours. Samples were analysed on a FACSCalibur (BD Biosciences, San Jose, Calif.)."}, "[4]": {"molecular_target": "T1, β2-integrin LFA-1 (CD11a) (Homo sapiens, UniProt P20701)", "T1 construct": "endogenous in cells; host or cells: human PBMC (healthy controls, cancer patients) and THP-1 monocytic cell line (ATCC)", "T1 sequence (P20701 26-1170)": "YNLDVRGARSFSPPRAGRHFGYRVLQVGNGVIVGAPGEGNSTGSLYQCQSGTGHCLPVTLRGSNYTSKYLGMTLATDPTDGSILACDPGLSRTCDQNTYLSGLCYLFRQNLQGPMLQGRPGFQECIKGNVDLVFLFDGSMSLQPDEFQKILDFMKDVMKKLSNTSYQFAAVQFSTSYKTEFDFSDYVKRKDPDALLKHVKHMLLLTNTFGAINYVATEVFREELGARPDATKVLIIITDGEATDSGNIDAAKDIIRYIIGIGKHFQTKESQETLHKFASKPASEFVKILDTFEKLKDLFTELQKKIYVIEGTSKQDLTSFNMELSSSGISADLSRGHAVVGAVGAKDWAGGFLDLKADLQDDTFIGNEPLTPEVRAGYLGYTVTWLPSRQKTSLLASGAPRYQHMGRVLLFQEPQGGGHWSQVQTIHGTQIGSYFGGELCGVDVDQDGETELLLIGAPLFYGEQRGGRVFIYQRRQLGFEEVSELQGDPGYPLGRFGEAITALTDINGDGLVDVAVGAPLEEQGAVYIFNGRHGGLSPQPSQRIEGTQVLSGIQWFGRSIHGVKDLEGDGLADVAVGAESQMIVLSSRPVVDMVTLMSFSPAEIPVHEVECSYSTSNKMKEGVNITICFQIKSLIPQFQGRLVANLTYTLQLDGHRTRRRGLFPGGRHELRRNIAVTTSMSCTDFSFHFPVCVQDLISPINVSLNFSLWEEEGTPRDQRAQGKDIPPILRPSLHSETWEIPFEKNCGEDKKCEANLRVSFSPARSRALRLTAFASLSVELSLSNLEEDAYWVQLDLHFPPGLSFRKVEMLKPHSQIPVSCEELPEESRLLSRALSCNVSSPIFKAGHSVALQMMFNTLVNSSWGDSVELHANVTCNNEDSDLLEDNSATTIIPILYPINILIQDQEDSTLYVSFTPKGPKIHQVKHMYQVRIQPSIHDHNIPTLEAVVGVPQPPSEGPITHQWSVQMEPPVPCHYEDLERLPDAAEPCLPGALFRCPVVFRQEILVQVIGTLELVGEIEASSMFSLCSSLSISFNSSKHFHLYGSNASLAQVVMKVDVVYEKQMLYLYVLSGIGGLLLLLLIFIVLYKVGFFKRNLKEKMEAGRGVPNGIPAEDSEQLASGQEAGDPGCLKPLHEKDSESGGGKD", "T1 sequence (P05107 23-769 partner)": "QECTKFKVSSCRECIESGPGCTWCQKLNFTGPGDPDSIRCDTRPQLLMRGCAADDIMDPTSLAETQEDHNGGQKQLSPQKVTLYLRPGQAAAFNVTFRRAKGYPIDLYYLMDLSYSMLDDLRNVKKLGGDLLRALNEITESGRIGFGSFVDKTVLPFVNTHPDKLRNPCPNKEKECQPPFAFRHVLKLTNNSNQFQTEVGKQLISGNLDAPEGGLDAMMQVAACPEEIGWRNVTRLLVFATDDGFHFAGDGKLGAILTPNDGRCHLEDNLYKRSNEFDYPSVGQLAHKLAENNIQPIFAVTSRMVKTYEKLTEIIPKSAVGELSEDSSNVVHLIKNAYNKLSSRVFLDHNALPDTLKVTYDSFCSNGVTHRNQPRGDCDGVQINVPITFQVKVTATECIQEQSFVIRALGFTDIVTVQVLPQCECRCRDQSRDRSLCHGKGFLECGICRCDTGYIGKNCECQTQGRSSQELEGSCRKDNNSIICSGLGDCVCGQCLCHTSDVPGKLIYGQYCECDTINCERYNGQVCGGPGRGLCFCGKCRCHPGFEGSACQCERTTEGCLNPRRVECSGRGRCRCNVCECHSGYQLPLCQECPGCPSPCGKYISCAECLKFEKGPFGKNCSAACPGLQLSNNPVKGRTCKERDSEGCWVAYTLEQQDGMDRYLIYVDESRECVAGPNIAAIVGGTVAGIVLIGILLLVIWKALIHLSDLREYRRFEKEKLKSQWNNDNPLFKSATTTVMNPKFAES", "assay": "Immunocytochemical staining of PBMC and THP-1 with anti-integrin (CD11a) antibody with or without albumin peptides", "format": "binding", "conditions": "for binding to LFA-1: Table 9 summary; for effect on binding of the LFA-1 antibody (HI 111) to LFA-1: mononuclear blood cells", "method": "Cytospin preparations of mononuclear blood cells from healthy controls, cancer patients and a monocytic cell line, THP-1, were prepared (as described under materials and methods), dried and stored at −70° C. In the immunocytological staining, unspecific staining was blocked by incubation with 10% human AB serum. Some of the slides were preincubated for 60 minutes with albumin peptides at a concentration of 40 μg/ml, added to this 10% AB serum, as indicated in the FIG. 8 A-F. The staining procedure was then continued as described in material and methods. The staining intensity of slides stained with and without preincubation with the peptides was recorded semi quantitatively using a standard light microscope.\nPBMC were separated as described above. Cultured THP-1 cells (obtained from the American Type Culture Collection through LGL Nordic AB, Sweden) were carefully washed and suspended in RPMI1640. PBMC and THP-1 were immediately spun down on pre-cleaned microscope slides in a Shandon Cytospin (Shandon Scientific Ltd, UK) at 1000 RPM for 7 min at 2.5 or 5×10^4 cells per slide. The slides were left to dry at room temperature over night, after which they were wrapped in parafilm and stored at −70° C. Immediately before use, the cytospins were thawed and fixed with acetone for 5 min at room temperature. The cytospins were first blocked with 10% normal human AB-serum with and without albumin peptides (40 ␣g/ml) for 1 h before staining. Primary antibody, consisting of a monoclonal mouse anti-human CD11a (clone HI111, BD Biosciences) diluted in Tris buffered saline (TBS, pH 7.6) at 5 μg/ml (THP-1) or 1 µg/ml (PBMC), was added. The slides were incubated for 30 min and then washed in TBS followed by Envision-Alkaline Phosphatase (Dako Norden A/S, Denmark) for 30 min. After additional washing in TBS, the slides were incubated in alkaline phoshatase substrate consisting of Fast Red TR salt (Sigma), naphtol AS-MX (Sigma) and 5 mM levamisol (Sigma) to block endogenous alkaline phosphatase activity, for 20 min followed by washing in TBS. They were then counterstained in Mayer's haematoxylin for 1 minute and mounted in Glycergel (Dako Norden NS). Monoclonal mouse IgG1 against an irrelevant antigen (Aspergillus niger glukosoxidase, Dako Norden NS) was used as a negative control. All incubations were performed at room temperature in a moist chamber.\nFIG. 24. Inhibition of the binding of anti-LFA-1, mab HI111, to mononuclear blood cells by 3028 peptide and fragments 3325 and 3218. A standard immunohistochemical staining procedure using acetone fixation, 10% human AB-serum for blocking, incubation with HI 111 and a secondary antibody (Ultravision, an alkaline phosphate conjugated polymer attached to Fab-fragments of goat anti-mouse Ig), followed by development with Fast Red. The slides were then mounted in Glycergel. Preincubation with peptides added to the AB serum was as follows: A. No peptide added, B. peptide 3028, C. The C-terminal part (3218), and D. The N-terminal part (3325)."}, "[5]": {"system": "PBMC", "assay": "Human ex vivo model: IL-2 induced proliferation of PBMC in the presence of albumin peptides", "conditions": "alone or in combination"}, "[6]": {"system": "PBMCs", "assay": "PHA-induced proliferation of PBMC in the presence of albumin peptides and/or dHSA", "format": "cell-based, human", "conditions": "PBMCs from two healthy controls; two PHA concentrations", "source_text": "Venous blood was drawn from healthy volunteers or from cancer patients in glass vacuum tubes with acid dextrose citrate solution A as anti-coagulant (Vacutainer, Becton Dickinson, Franklin Lakes, N.J.). Erythrocytes were removed by sedimentation on 2% dextran T500 solution (Amersham Pharmacia Biotech AB, Uppsala, Sweden) in 0.9% NaCl (this step was omitted for cultures with PHA-stimulation-see below). […] For cell cultures with PHA-stimulation, PBMC were washed in Hank's Balanced Salt Solution (HBSS) with 10% autologous plasma instead of RPMI/2% HSA. […] The cell suspension was stained with Turk's solution and the number of lymphocytes and monocytes in the PBMC preparation were counted in a hemocytometer. PBMCs were suspended in RPMI/2% HSA and the cell concentration adjusted to 5×10^5 lymphocytes/ml.\n100 μl of the cell suspension were seeded into round-bottomed microtiter plates (Corning, N.Y., USA) followed by 100 μl of culture medium consisting of RPMI 1640 (Flow Laboratories, Irvine, Scotland) supplemented with 200 IU/ml Penicillin, 200 μg/ml Streptomycin (Flow laboratories) and 20% heat inactivated autologous serum. Phytohemagglutinin (PHA-P, Sigma Chemical Co, St. Louis, Mo.) at a final concentration of 5 or 10 μg/ml was then added.\nAll culture conditions were set up in triplicate wells. […] Mean values of disintegrations per minute (dpm) of triplicates were used for the calculations."}, "[7]": {"system": "rabbit anti-3028", "assay": "Inhibition of rabbit anti-3028 ELISA by albumin peptides", "format": "binding", "conditions": "Table 9 summary", "method": "To test if albumin peptides inhibited the binding of the rabbit anti-3028 to 3028 coated wells, rabbit antisera, diluted 1/1000 000 in ELISA reagent diluent, was pre-incubated for 1 hr at room temperature with the indicated concentrations of the peptides. 100 μl of the […], or, alternatively, the monoclonal antibody mixed with peptides, was then added to 3028 coated wells and the ELISA carried out as described."}}}
{"substance": "ELFEQLGEYKFQNALLVR [peptide 3027]", "values": [{"measurement": "effect on LPS induced IL-6 production", "setting": "[1]; melanoma patients", "result": "stimulated one of the melanoma patients"}, {"measurement": "effect on LPS induced IL-6 production", "setting": "[1]; renal cell carcinoma patient", "result": "stimulatory effect"}, {"measurement": "effect on LPS induced IL-6 production", "setting": "[1]; two healthy controls", "result": "slightly stimulatory in one of the controls and had an inhibitory effect in the other"}, {"measurement": "effect on IL-2 induced proliferation", "setting": "[2]", "result": "no statistically significant activity"}, {"measurement": "effect on percent specific lysis of K562 target cells", "setting": "[3]", "result": "Inhibition was not seen"}]}
{"substance": "VFDEFKPLVE [peptide 3325]", "values": [{"measurement": "binding to LFA-1", "setting": "[4]", "result": "Weak binding"}, {"measurement": "effect on binding of the LFA-1 antibody (HI 111) to LFA-1", "setting": "[4]", "result": "inhibit the binding of mAb HI 111 to LFA-1"}, {"measurement": "neutralisation of the inhibitory effect of peptide 3028 on IL-2 induced proliferation", "setting": "[5]", "result": "not neutralised"}]}
{"substance": "NEETFLKKYLYEIARRHPYFYAP [peptide 3026]", "values": [{"measurement": "effect on dHSA modulated PHA stimulated proliferation", "setting": "[6]", "result": "inhibited the stimulatory activity of dHSA"}, {"measurement": "effect on LPS induced IL-6 production", "setting": "[1]; healthy control PBMC1", "result": "clear biphasic effect"}, {"measurement": "effect on LPS induced IL-6 production", "setting": "[1]; healthy control PBMC 2", "result": "no certain effect"}, {"measurement": "effect on LPS induced IL-6 production", "setting": "[1]; renal cell carcinoma patient", "result": "stimulatory effect"}, {"measurement": "effect on IL-2 induced proliferation", "setting": "[2]", "result": "no statistically significant activity"}]}
{"substance": "peptide 3218: C-terminal part of peptide 3028 (EPQNLIK)", "values": [{"measurement": "binding to LFA-1", "setting": "[4]", "result": "Weak binding"}, {"measurement": "effect on binding of the LFA-1 antibody (HI 111) to LFA-1", "setting": "[4]", "result": "inhibit the binding of mAb HI 111 to LFA-1"}, {"measurement": "binding to affinity purified antibodies", "setting": "[7]", "result": "Does not bind"}, {"measurement": "neutralisation of the inhibitory effect of peptide 3028 on IL-2 induced proliferation", "setting": "[5]", "result": "not neutralised"}]}
